US20180021277A1, “ANTI-VIRULENCE COMPOSITIONS AND METHODS” (priority 2012, published 2018)
Positions count from the first letter of the chain named. “And” between values parts separate entries of the source, which are not always exact repeats. Identical values can stand only once.

Experiments:
[1] = biological target: T1, AgrA_C from Staphylococcus epidermidis (Staphylococcus epidermidis, UniProt Q5HMY2); assay: Microscale thermophoresis binding to AgrA_C from S. epidermidis; settings: compared with S. aureus AgrA_C; data not shown
T1 sequence (Q5HMY2 143-238 limits assumed): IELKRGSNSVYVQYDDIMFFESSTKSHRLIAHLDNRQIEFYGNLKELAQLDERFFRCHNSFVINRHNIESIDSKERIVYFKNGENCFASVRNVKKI
Experimental: (§1) The AgrA C proteins from S. aureus and S. epidermidis were fluorescently labeled with Alexa Fluor 647 NHS ester and purified on Zeba spin columns. Compound F19 was diluted as a gradient through the capillaries while protein concentrations were maintained constant. Measurements were performed on a Nanotemper Monolith NT.115 apparatus. Lysozyme and known inhibitor N,N′,N″-triacetylchitotriose (Fisher Scientific) were used as controls.

MRSA USA300 [2] = assay: Biofilm measurement (crystal violet), MRSA; format: cell-based, Staphylococcus aureus; settings: control = 100
Experimental: Bacterial cells were grown in Luria Broth overnight and an OD600 of 0.5 corresponding to 10^6 cfu/mL. 200 μL of this bacterial culture was plated with the presence of compound at various concentrations. Biofilm was allowed to form by placing the plate at 37° C. in the incubator without shaking. The plate was then washed 2× with water while being careful not to disturb the biofilm. Water was aspirated out and the plate was baked dry in a 60° C. incubator for 2 h. 125 μL of a 0.06% crystal violet solution ([…] in H2O) was added to each well and allowed to sit at room temperature for 15 minutes. […] The plate was inverted on a paper towel to dry overnight.125 μL of 30% acetic acid was added to each well and was left at room temperature for 15 minutes. The wells were mixed by pipetting and the solution was transferred to a clean 96-well plate and read at OD595.

[3] = biological target: T2, AgrA_C from S. epidermidis / P3 DNA (Staphylococcus epidermidis, UniProt Q5HMY2); assay: Electrophoretic mobility shift assay of AgrA_C from S. epidermidis with P3 DNA; format: binding; settings: 1 nM P3 DNA, 1 μM AgrA_C, increasing F19, 1% DMSO
T2 sequence (Q5HMY2 143-238): T1 sequence (Q5HMY2 143-238 limits assumed)
Experimental: FIG. 8 illustrates Electrophoretic mobility shift assay of AgrA_C from S. epidermidis as a function of F19 concentration. […] P3 DNA was radiolabeled with 32P. The concentrations of P3 DNA and AgrA_C were 1 nM and 1 μM, respectively. F19 was titrated in at increasing concentrations while maintaining a constant concentration of 1% DMSO.

[4] = biological target: T3, C-terminal DNA-binding domain (AgrA_C) of the Staphylococcus aureus response regulator AgrA (Staphylococcus aureus, UniProt P0A0I7); assay: Microscale thermophoresis binding to AgrA_C; settings: listed as F19, read-out: Kd / affinity to AgrA_C
T3 sequence (P0A0I7 143-238): T1 sequence (Q5HMY2 143-238 limits assumed) with A48S, E52D, I63V, G83K, N85H, F87Y
Experimental: as §1

MRSA USA300 [5] = assay: Murine MRSA bacteremia/sepsis model
MRSE Q-15 = assay: Host cell damage assay (LDH leakage), MRSE; format: cell-based, Staphylococcus epidermidis; settings: for % Damage (LDH Leakage): THP-1 human monocytes; for Damage (%): Table 2, control = 100
Experimental: (§2) Damage to host cells was measured by leakage of lactate dehydrogenase (LDH) with the CytoTox 96 Non-Radioactive Cytotoxicity LDH Assay Promega Kits G178 and G1782 according to manufacturer's instructions.
[…] The bacteria were cultured at 37° C., in a shaking incubator for 6 h at which time 20 μL of bacterial culture was added to 5×10^4 THP-1 monocytes or J774.2 macrophages in 100 μL of cell media (DMEM for J774.2 cells and RPMI for THP-1 cells) in 96 well plates. Bacteria and macrophage/monocytes were incubated together for 40 min at 37° C. Plates were then spun at 250 g for 4 min and 50 μL of the supernatant was removed to a new 96 well plate. 50 μL of substrate mix+assay buffer were added and incubated at room temperature for 10-30 min depending upon the rate of product formation and stopped by addition of 50 μL stop solution. The colorometric products were read at 490 nm on a Victor 3 plate reader. The data presented are from experiments performed in triplicate.
(§3) Gram-positive pathogens compromise host cell defense factors by puncturing membranes of immune system cells. To examine F19 efficacy in preventing host cell damage by various pathogens cell lysis assays were carried out by measuring leakage of lactate dehydrogenase (LDH) from cells. F19 indeed inhibits pathogen-mediated lysis of human THP-1 monocytes and mouse macrophage cell line J7774.2 by a series of Gram-positive pathogens, including MRSA, MRSE, Streptococcus pyogenes, Streptococcus pneumoniae and Bacillus cereus in a dose dependent manner (Table 2 for MRSA, Table 4 for other pathogens).

Bacillus cereus = assay: Host cell damage assay (LDH leakage), Bacillus cereus; format: cell-based; settings: THP-1 human monocytes
Experimental: as §2
Overnight cultures of the bacterial strain to be tested were spun down, washed, diluted 1:4 and incubated with broth containing 10-50 μg/ml of F19 or containing 2% DMSO as control. The bacteria were cultured at 37° C., in a shaking incubator for 6 h at which time 20 μL of bacterial culture was added to 5×10^4 THP-1 monocytes or J774.2 macrophages in 100 μL of cell media (DMEM for J774.2 cells and RPMI for THP-1 cells) in 96 well plates. Bacteria and macrophage/monocytes were incubated together for 40 min at 37° C. Plates were then spun at 250 g for 4 min and 50 μL of the supernatant was removed to a new 96 well plate. 50 μL of substrate mix+assay buffer were added and incubated at room temperature for 10-30 min depending upon the rate of product formation and stopped by addition of 50 μL stop solution. The colorometric products were read at 490 nm on a Victor 3 plate reader. The data presented are from experiments performed in triplicate.
as §3

CCCCCCc1cc(C(=O)COc2ccc(C(C)C)cc2)c(O)cc1O [4f-19]
affinity to AgrA_C from Staphylococcus epidermidis [1]: Statistically identical affinity | Biofilm (%) (MRSA USA300 [2]; F19 1 μg/ml): 78.8 ± 11.8% | Biofilm (%) (MRSA USA300 [2]; F19 10 μg/ml): 53.7 ± 7.9% | Biofilm (%) (MRSA USA300 [2]; F19 50 μg/ml): 20.6 ± 3.7% | formation of the protein-nucleic acid complex (EMSA) [3]: prevent the formation of the protein—nucleic acid complex | Kd [4]: 2.9 µM and 4.5 µM | mean bacterial load in blood compared to vehicle-treated animals (MRSA USA300 [5]; 30 mg/kg IP twice daily, day 6): nearly an order of magnitude lower | survival (MRSA USA300 [5]; F19 alone 30 mg/kg IP twice daily for 7 days): 100% | % Damage (LDH Leakage) (MRSE Q-15; F19 1 μg/mL): 85.5 ± 2.6% | % Damage (LDH Leakage) (MRSE Q-15; F19 5 μg/mL): 62.6 ± 1.1% | % Damage (LDH Leakage) (MRSE Q-15; F19 10 μg/mL): 48.1 ± 1.1% | % Damage (LDH Leakage) (MRSE Q-15; F19 20 μg/mL): 26.5 ± 0.5% | % Damage (LDH Leakage) (MRSE Q-15; F19 30 μg/mL): 22.1 ± 0.6% | % Damage (LDH Leakage) (MRSE Q-15; F19 40 μg/mL): 19.6 ± 1.1% | Damage (%) (MRSE Q-15; F19 1 μg/ml): 85.5 ± 2.6% | Damage (%) (MRSE Q-15; F19 10 μg/ml): 48.1 ± 1.1% | Damage (%) (MRSE Q-15; F19 50 μg/ml): 15.7 ± 0.5% | % Damage (LDH Leakage) (Bacillus cereus; F19 30 μg/mL): 63.7 ± 1.3% | % Damage (LDH Leakage) (Bacillus cereus; F19 40 μg/mL): 52.0 ± 0.1% | % Damage (LDH Leakage) (Bacillus cereus; F19 50 μg/mL): 69.7 ± 1.2%
